Measured values from patent US10065928B2, “Quinolinone compound and use thereof” (Sunshine Lake Pharma Co., Ltd., priority 2014, dated 2018).
pEC50: −log10 of the molar value.

How the values were obtained:
[1] = tested on: erythropoietin (EPO) production in Hep3B cells; experiment: Activity in inducing erythropoietin (EPO) production in vitro, Hep3B cells, EPO ELISA; format: cell-based; conditions: Homo sapiens, 24 h, EPO in supernatant by ELISA
Experimental: The activities of compounds of the invention in inducing erythropoietin (EPO) production were assessed by using human live cancer cell strain Hep3B (ATCC: American type culture collection, Manassas, Va.). Hep3B cells seeded in a 96-well plate with a density of 2.5×10^4 cells/well were cultivated overnight in DMEM culture medium (Dulbecco's Modified Eagle's Medium) at 37° C. in the presence of 10% fetal bovine serum (FBS). The next day, the supernatant liquid of culture medium was abandoned by suction, and to the residue was added fresh DMEM (containing 0.5% DMSO, 0.5% FBS) containing compound of the invention with a series of concentrations (0.31160.00 μM) or containing solvent used for comparison. The cells were cultivated at 37° C. for 24 h. The supernatant liquid was collected and the EPO concentration of the supernatant was quantified by using human EPO ELISA kit (Abcam). The activity of each compound in inducing erythropoietin (EPO) production was represented by half maximal effective concentration (EC50).

[2] = Pharmacokinetic assay in male SD rats (iv and oral); format: in vivo; conditions: for F: po 5 mg/kg vs iv 1 mg/kg; for AUC(0-t) / Cmax / Tmax / clearance / half-life / Vd: rat, plasma; for Vd: read-out: Vss
Experimental: Preparation of test compound solutions: the test compound solution was prepared for oral and intravenous administration by using 5% DMSO, 5% Solutol HS 15 and 90% normal saline.
Male SD rats weighing 190-250 g were randomly divided into two groups, and each group had three rats; one group was administered with test compound at a dose of 1.0 mg/kg by intravenous injection, the other group was administered with test compound at a dose of 5.0 mg/kg by oral. After administering, blood samples were collected at time points of 0.0833, 0.25, 0.5, 1.0, 2.0, 4.0, 7.0 and 24 h. Standard curve was plotted based on concentrations of the samples in a suitable range, and the concentrations of test compounds in plasma samples were determined by using AB SCIEX API4000 LC-MS/MS in MRM mode. Pharmacokinetic parameters were calculated according to drug concentration−time curve using a noncompartmental method with WinNonLin 6.3 software.

pEC50 [1] | F [2] | AUC(0-t) ([2]; iv, 1 mg/kg) | Cmax ([2]; iv, 1 mg/kg) | Tmax ([2]; iv, 1 mg/kg) | clearance ([2]; iv, 1 mg/kg) | half-life ([2]; iv, 1 mg/kg) | Vd ([2]; iv, 1 mg/kg) | AUC(0-t) ([2]; po, 5 mg/kg) | Cmax ([2]; po, 5 mg/kg) | Tmax ([2]; po, 5 mg/kg) | half-life ([2]; po, 5 mg/kg) | SMILES
5.27 | 81.5% | 9340 ng·h/mL | 8910 ng/mL | 4.98 min | 1.77 mL/min/kg | 467 min | 0.234 L/kg | 38400 ng·h/mL | 18400 ng/mL | 40 min | 252 min | Cn1c(=O)c(C(=O)NCC(=O)O)c(O)c2ccc(Oc3ccccc3)cc21 [Example 1, 2-(4-hydroxy-1-methyl-2-oxo-7-phenoxy-1,2-dihydroquinoline-3-carboxamido)acetic acid]
5.15 | 94.6% | 13100 ng·h/mL | 8480 ng/mL | 4.98 min | 1.32 mL/min/kg | 57.5 min | 0.107 L/kg | 57000 ng·h/mL | 12300 ng/mL | 70.2 min | 254 min | Cn1c(=O)c(C(=O)NCC(=O)O)c(O)c2ccc(Oc3ccc(Cl)cc3)cc21 [Example 13, 2-(7-(4-chlorophenoxy)-4-hydroxy-1-methyl-2-oxo-1,2-dihydroquinoline-3-carboxamido)acetic acid]
5.65 | 98.7% | 8260 ng·h/mL | 6080 ng/mL | 4.98 min | 2.06 mL/min/kg | 65.4 min | 0.164 L/kg | 41000 ng·h/mL | 9560 ng/mL | 30 min | 84 min | Cn1c(=O)c(C(=O)NCC(=O)O)c(O)c2ccc(Oc3cc(F)ccc3F)cc21 [Example 19, 2-(7-(2,5-difluorophenoxy)-4-hydroxy-1-methyl-2-oxo-1,2-dihydroquinoline-3-carboxamido)acetic acid]
5.38 | 108.6% | 10800 ng·h/mL | 10100 ng/mL | 4.98 min | 1.56 mL/min/kg | 57.5 min | 0.146 L/kg | 58700 ng·h/mL | 10700 ng/mL | 50 min | 167 min | Cn1c(=O)c(C(=O)NCC(=O)O)c(O)c2ccc(Oc3cc(Cl)ccc3F)cc21 [Example 22, 2-(7-(5-chloro-2-fluorophenoxy)-4-hydroxy-1-methyl-2-oxo-1,2-dihydroquinoline-3-carboxamido)acetic acid]
5.82 | 107.8% | 6200 ng·h/mL | 4170 ng/mL | 4.98 min | 2.67 mL/min/kg | 59.4 min | 0.217 L/kg | 33300 ng·h/mL | 11700 ng/mL | 55 min | 106 min | Cn1c(=O)c(C(=O)NCC(=O)O)c(O)c2ccc(Oc3ccc(F)cc3Cl)cc21 [Example 28, 2-(7-(2-chloro-4-fluorophenoxy)-4-hydroxy-1-methyl-2-oxo-1,2-dihydroquinoline-3-carboxamido)acetic acid]
5.41 | 90.7% | 10200 ng·h/mL | 6400 ng/mL | 4.98 min | 1.66 mL/min/kg | 63.6 min | 0.144 L/kg | 46200 ng·h/mL | 11500 ng/mL | 30 min | 158 min | Cn1c(=O)c(C(=O)NCC(=O)O)c(O)c2ccc(Oc3ccc(F)cc3)cc21 [Example 47, 2-(7-(4-fluorophenoxy)-4-hydroxy-1-methyl-2-oxo-1,2-dihydroquinoline-3-carboxamido)acetic acid]
5.18 | – | – | – | – | – | – | – | – | – | – | – | Cn1c(=O)c(C(=O)NCC(=O)O)c(O)c2ccc(Oc3ccccc3Cl)cc21 [Example 48, 2-(7-(2-chlorophenoxy)-4-hydroxy-1-methyl-2-oxo-1,2-dihydroquinoline-3-carboxamido)acetic acid]

SMILES | pEC50 [1] | F [2] | AUC(0-t) ([2]; iv, 1 mg/kg) | Cmax ([2]; iv, 1 mg/kg) | Tmax ([2]; iv, 1 mg/kg) | clearance ([2]; iv, 1 mg/kg) | half-life ([2]; iv, 1 mg/kg) | Vd ([2]; iv, 1 mg/kg) | AUC(0-t) ([2]; po, 5 mg/kg) | Cmax ([2]; po, 5 mg/kg) | Tmax ([2]; po, 5 mg/kg) | half-life ([2]; po, 5 mg/kg)
O=C(O)CNC(=O)c1c(O)c2ccc(Oc3ccccc3)cc2n(CC2CC2)c1=O [Example 2, 2-(1-(cyclopropylmethyl)-4-hydroxy-2-oxo-7-phenoxy-1,2-dihydroquinoline-3-carboxamido)acetic acid] | 5.30 | 100.4% | 20200 ng·h/mL | 7190 ng/mL | 13.3 min | 0.833 mL/min/kg | 224 min | 0.159 L/kg | 101000 ng·h/mL | 13200 ng/mL | 130 min | 239 min
